This passage reports Ki and EC50 results from US9346815B2, “5-chloro-2-difluoromethoxyphenyl pyrazolopyrimidine compounds, compositions and methods of use thereof” (Genentech, Inc., priority 2014, dated 2016).

Test [1] addresses isolated recombinant JAK1 kinase domain (Homo sapiens (Human), UniProt P23458). Put plainly: JAK1 enzyme assay (Caliper LabChip, peptide phosphorylation). It is filed as biochemical. As to conditions: isolated recombinant JAK1 kinase domain, 25 μM ATP.
Test [2] addresses isolated recombinant JAK2 kinase domain (Homo sapiens (Human), UniProt O60674). Put plainly: JAK2 enzyme assay (Caliper LabChip, peptide phosphorylation). It is filed as biochemical. The following applies: 25 μM ATP.
Test [3] relates to JAK1-dependent STAT6 phosphorylation downstream of IL-13 stimulation in TF-1 human erythroleukemia cells. Briefly: JAK1 pathway assay in TF-1 cells (IL-13-pSTAT6, MSD). The test is classed as cell-based. The following applies: Homo sapiens, TF-1, TF-1 cells, read-out: IL13-pSTAT6 EC50_TF-1. The method in brief:
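TF-1 cells are starved of GM-CSF overnight and run in serum-free medium, while BEAS-2B cells stay in complete growth medium. Inhibition of STAT6 phosphorylation is measured by MSD.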

SMILES strings stand for the structures. pEC50, pKi: −log10 of the molar value. Structures can show the parent of a compound that is named as a salt.

Chain of isolated recombinant JAK2 kinase domain (O60674 849-1124): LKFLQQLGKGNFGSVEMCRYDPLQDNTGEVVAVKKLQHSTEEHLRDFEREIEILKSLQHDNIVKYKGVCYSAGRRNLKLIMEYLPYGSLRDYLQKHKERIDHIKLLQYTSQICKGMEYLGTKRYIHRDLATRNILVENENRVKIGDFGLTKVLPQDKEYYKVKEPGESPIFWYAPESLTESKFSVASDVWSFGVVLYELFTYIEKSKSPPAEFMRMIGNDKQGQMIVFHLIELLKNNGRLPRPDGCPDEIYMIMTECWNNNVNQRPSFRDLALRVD
Chain of isolated recombinant JAK1 kinase domain (P23458 875-1153): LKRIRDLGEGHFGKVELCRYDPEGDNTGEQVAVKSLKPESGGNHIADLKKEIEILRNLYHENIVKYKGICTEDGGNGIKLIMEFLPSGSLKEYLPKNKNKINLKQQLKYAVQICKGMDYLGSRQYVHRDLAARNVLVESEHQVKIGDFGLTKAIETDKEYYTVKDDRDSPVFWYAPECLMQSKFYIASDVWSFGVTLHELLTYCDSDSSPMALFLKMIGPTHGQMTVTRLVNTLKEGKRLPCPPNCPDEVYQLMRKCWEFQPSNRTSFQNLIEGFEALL

Regarding `Nc1nn2cccnc2c1C(=O)Nc1cn(CC(=O)N2CCNCC2)nc1-c1cc(Cl)ccc1OC(F)F` [Example 249, 2-amino-N-[3-[5-chloro-2-(difluoromethoxy)phenyl]-1-(2-oxo-2-piperazin-1-yl-ethyl)pyrazol-4-yl]pyrazolo[1,5-a]pyrimidine-3-carboxamide], the pKi in test [1] was 9.14; in test [2], 9.36. Besides, the pEC50 in test [3] was 7.49.

In the case of `CN(C)C1CCN(C(=O)c2ccc(-c3nc(-c4cc(Cl)ccc4OC(F)F)c(NC(=O)c4cnn5cccnc45)s3)cc2)CC1` [Example 253, Pyrazolo[1,5-a]pyrimidine-3-carboxylic acid {4-(5-chloro-2-difluoromethoxy-phenyl)-2-[4-(4-dimethylamino-piperidine-1-carbonyl)-phenyl]-thiazol-5-yl}-amide hydrochloride], the pKi in test [1] was 9.25; in test [2] it was 9.39. In test [3], the pEC50 was 7.74.

For `O=C(Nc1sc(-c2ccncc2)nc1-c1cc(Cl)ccc1OC(F)F)c1cnn2cccnc12` [Example 254, N-[4-[5-chloro-2-(difluoromethoxy)phenyl]-2-(4-pyridyl)thiazol-5-yl]pyrazolo[1,5-a]pyrimidine-3-carboxamide], the figures for the negative-log Ki (pKi) in test [1] and in test [2] were 8.79 and 9.11, respectively. Moreover, the pEC50 in test [3] is 6.93.

Turning to `CN(C)Cc1ccc(-c2nc(-c3cc(Cl)ccc3OC(F)F)c(NC(=O)c3cnn4cccnc34)s2)cc1` [Example 255, N-[4-[5-chloro-2-(difluoromethoxy)phenyl]-2-[4-[(dimethylamino)methyl]phenyl]thiazol-5-yl]pyrazolo[1,5-a]pyrimidine-3-carboxamide], the pKi in test [1] is 9.25; in test [2], 9.40. Besides, the pEC50 in test [3] is 7.06.

For the compound `O=C(Nc1sc(-c2ccc(CN3CC(F)C3)cc2)nc1-c1cc(Cl)ccc1OC(F)F)c1cnn2cccnc12` [Example 256, N-[4-[5-chloro-2-(difluoromethoxy)phenyl]-2-[4-[(3-fluoroazetidin-1-yl)methyl]phenyl]thiazol-5-yl]pyrazolo[1,5-a]pyrimidine-3-carboxamide], the pKi in test [1] is 8.88; in test [2], 9.02. For the same compound, the pEC50 in test [3] is 7.04.

On to `O=C(Nc1sc(-c2ccc(CN3CC(F)(F)C3)cc2)nc1-c1cc(Cl)ccc1OC(F)F)c1cnn2cccnc12` [Example 257, N-[4-[5-chloro-2-(difluoromethoxy)phenyl]-2-[4-[(3,3-difluoroazetidin-1-yl)methyl]phenyl]thiazol-5-yl]pyrazolo[1,5-a]pyrimidine-3-carboxamide], for which the pKi is 8.53 in test [1] and 8.68 in test [2]. In addition, the pEC50 in test [3] is 6.00.

As for `CN1CCN(c2ccc(-c3nc(-c4cc(Cl)ccc4OC(F)F)c(NC(=O)c4cnn5cccnc45)s3)cc2)CC1` [Example 258, N-[4-[5-chloro-2-(difluoromethoxy)phenyl]-2-[4-(4-methylpiperazin-1-yl)phenyl]thiazol-5-yl]pyrazolo[1,5-a]pyrimidine-3-carboxamide], the pKi was 8.93 in test [1] and 9.14 in test [2]. For the same compound, the pEC50 in test [3] was 7.15.

Take `CN1CCN(C(=O)c2ccc(-c3nc(-c4cc(Cl)ccc4OC(F)F)c(NC(=O)c4cnn5cccnc45)s3)cc2)CC1` [Example 259, N-[4-[5-chloro-2-(difluoromethoxy)phenyl]-2-[4-(4-methylpiperazine-1-carbonyl)phenyl]thiazol-5-yl]pyrazolo[1,5-a]pyrimidine-3-carboxamide]: the pKi is 9.03 in test [1] and 9.25 in test [2]. Besides, in test [3], the pEC50 is 7.89.

For `CN(C)C1CCN(Cc2nc(-c3cc(Cl)ccc3OC(F)F)c(NC(=O)c3cnn4cccnc34)s2)CC1` [Example 260, Pyrazolo[1,5-a]pyrimidine-3-carboxylic acid [4-(5-chloro-2-difluoromethoxy-phenyl)-2-(4-dimethylamino-piperidin-1-ylmethyl)-thiazol-5-yl]-amide], the pKi in test [1] is 8.11; in test [2] it was 8.58. The pEC50 in test [3] was 7.16.

For the compound `CN1C[C@@H]2CN(Cc3nc(-c4cc(Cl)ccc4OC(F)F)c(NC(=O)c4cnn5cccnc45)s3)C[C@@H]2C1` [Example 262, N-[2-[[(3aR,6aS)-2-methyl-1,3,3a,4,6,6a-hexahydropyrrolo[3,4-c]pyrrol-5-yl]methyl]-4-[5-chloro-2-(difluoromethoxy)phenyl]thiazol-5-yl]pyrazolo[1,5-a]pyrimidine-3-carboxamide], the pKi in test [1] is 8.23; in test [2], 8.76. In test [3], the pEC50 was 7.20.

Turning to `CN1C[C@@H]2CN(C(=O)c3nc(-c4cc(Cl)ccc4OC(F)F)c(NC(=O)c4cnn5cccnc45)s3)C[C@@H]2C1` [Example 264, Pyrazolo[1,5-a]pyrimidine-3-carboxylic acid [4-(5-chloro-2-difluoromethoxy-phenyl)-2-(5-methyl-hexahydro-pyrrolo[3,4-c]pyrrole-2-carbonyl)-thiazol-5-yl]-amide], the pKi is 8.57 in test [1] and 8.62 in test [2]. The pEC50 in test [3] was 7.70.

Turning to `CN(C)C1CCN(C(=O)c2nc(-c3cc(Cl)ccc3OC(F)F)c(NC(=O)c3cnn4cccnc34)s2)CC1` [Example 265, N-[4-[5-chloro-2-(difluoromethoxy)phenyl]-2-[4-(dimethylamino)piperidine-1-carbonyl]thiazol-5-yl]pyrazolo[1,5-a]pyrimidine-3-carboxamide], the figures for the pKi in test [1] and in test [2] were 8.44 and 8.37, respectively. The pEC50 in test [3] was 7.64.

Consider `Nc1nn2cccnc2c1C(=O)Nc1cn(CC(=O)N2CCC(CO)CC2)nc1-c1cc(Cl)ccc1OC(F)F` [Example 266, 2-amino-N-[3-[5-chloro-2-(difluoromethoxy)phenyl]-1-[2-[4-(hydroxymethyl)-1-piperidyl]-2-oxo-ethyl]pyrazol-4-yl]pyrazolo[1,5-a]pyrimidine-3-carboxamide], for which the results for the pKi in test [1] and in test [2] were 9.62 and 10.00, respectively. The pEC50 in test [3] was 8.23.

As to `O=C(Nc1cn(CC(=O)N2CCC[C@H]2C(O)CO)nc1-c1cc(Cl)ccc1OC(F)F)c1cnn2cccnc12` (stereo partly drawn) [Example 267, N-[3-[5-chloro-2-(difluoromethoxy)phenyl]-1-[2-[(2S)-2-(1,2-dihydroxyethyl)pyrrolidin-1-yl]-2-oxo-ethyl]pyrazol-4-yl]pyrazolo[1,5-a]pyrimidine-3-carboxamide], the results for the pKi in test [1] and in test [2] were 9.18 and 9.21, respectively. Also, in test [3], the pEC50 was 7.45.

Take `CN(C)C1CCN(C(=O)c2ccc(-n3cc(NC(=O)c4cnn5cccnc45)c(-c4cc(Cl)ccc4OC(F)F)n3)cc2)CC1` [Example 302, Pyrazolo[1,5-a]pyrimidine-3-carboxylic acid {3-(5-chloro-2-difluoromethoxy-phenyl)-1-[4-(4-dimethylamino-piperidine-1-carbonyl)-phenyl]-1H-pyrazol-4-yl}-amide hydrochloride]: the negative logarithm of the Ki (pKi) in test [1] was 9.22; in test [2], 8.95. In test [3], the pEC50 was 7.79.

As for `CN(CC(F)(F)F)C1CCN(C(=O)c2ccc(-n3cc(NC(=O)c4cnn5cccnc45)c(-c4cc(Cl)ccc4OC(F)F)n3)cc2)CC1` [Example 303, N-[3-[5-chloro-2-(difluoromethoxy)phenyl]-1-[4-[4-[methyl(2,2,2-trifluoroethyl)amino]piperidine-1-carbonyl]phenyl]pyrazol-4-yl]pyrazolo[1,5-a]pyrimidine-3-carboxamide], the results for the pKi in test [1] and in test [2] were 8.72 and 8.48, respectively. For the same compound, the pEC50 in test [3] was 7.11.
